Measurements reported in PubChem BioAssay AID2060607 (Molecular Pharmacology Branch, DTP, NCI, 2025).

System: 876862-298-R-J1-PDC complex spheroids, viability % test/control
Experiment: Anticancer human tumor 876862-298-R-J1-PDC patient-derived endometrial carcinoma cell line growth inhibition [CLK]
Conditions: for IC50: curve of first compound; for viability, T/C: stronger effect = lower value
Procedure, shortened: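 Multi-cell-type spheroids combined patient-derived tumor cells with HUVEC endothelial cells and human mesenchymal stem cells. Paired agents were dosed in half-log steps down from about clinical Cmax, or from 10 microM where Cmax was unknown.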

[1] = second compound 0.0316 µM, first compound 0.0316 µM
[2] = second compound 0.0316 µM, first compound 0.1 µM
[3] = second compound 0.1 µM, first compound 0.0316 µM
[4] = second compound 0.1 µM, first compound 0.1 µM
[5] = second compound 0.316 µM, first compound 0.0316 µM
[6] = second compound 0.316 µM, first compound 0.1 µM
[7] = second compound 1 µM, first compound 0.0316 µM
[8] = second compound 1 µM, first compound 0.1 µM
[9] = second compound 3.16 µM, first compound 0.0316 µM
[10] = second compound 3.16 µM, first compound 0.1 µM
[11] = second compound 10 µM, first compound 0.0316 µM
[12] = second compound 10 µM, first compound 0.1 µM
[13] = second compound 0.0316 µM, first compound 0.316 µM
[14] = second compound 0.0316 µM, first compound 1 µM
[15] = second compound 0.0316 µM, first compound 3.16 µM
[16] = second compound 0.0316 µM, first compound 10 µM
[17] = second compound 0.1 µM, first compound 0.316 µM
[18] = second compound 0.1 µM, first compound 1 µM
[19] = second compound 0.1 µM, first compound 3.16 µM
[20] = second compound 0.1 µM, first compound 10 µM
[21] = second compound 0.316 µM, first compound 0.316 µM
[22] = second compound 0.316 µM, first compound 1 µM
[23] = second compound 0.316 µM, first compound 3.16 µM
[24] = second compound 0.316 µM, first compound 10 µM
[25] = second compound 1 µM, first compound 0.316 µM
[26] = second compound 1 µM, first compound 1 µM
[27] = second compound 1 µM, first compound 3.16 µM
[28] = second compound 1 µM, first compound 10 µM
[29] = second compound 3.16 µM, first compound 0.316 µM
[30] = second compound 3.16 µM, first compound 1 µM
[31] = second compound 3.16 µM, first compound 3.16 µM
[32] = second compound 3.16 µM, first compound 10 µM
[33] = second compound 10 µM, first compound 0.316 µM
[34] = second compound 10 µM, first compound 1 µM
[35] = second compound 10 µM, first compound 3.16 µM
[36] = second compound 10 µM, first compound 10 µM
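Also: spheroids exposed to drugs for 7 days before readout.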
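For viability, T/C in this document: 100% = DMSO vehicle control wells.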

`Cn1ncnc1[C@H]1c2n[nH]c(=O)c3cc(F)cc(c23)N[C@@H]1c1ccc(F)cc1` + CN1CCN(c2cc(C(=O)Nc3cc4cc(-c5cnn(C)c5)ccc4cn3)ccn2)CC1 was tested, and the IC50 (second compound 0.0316 µM) was > 0.1 µM, the IC50 (second compound 0.1 µM) was < 0.000316 µM and the IC50 (second compound 0.316 µM) was < 0.000316 µM. For the same compound, the IC50 (second compound 1 µM) was < 0.000316 µM, the IC50 (second compound 3.16 µM) was < 0.000316 µM and the IC50 (second compound 10 µM) was < 0.000316 µM. For the same compound, the viability, T/C (second compound 0.0316 µM, first compound 0.000316 µM) was 94.8%, the viability, T/C (second compound 0.0316 µM, first compound 0.001 µM) was 81.4% and the viability, T/C (second compound 0.0316 µM, first compound 0.00316 µM) was 89.7%. It also gave a viability, T/C (second compound 0.0316 µM, first compound 0.01 µM) of 87%, a viability, T/C [1] of 99.8% and a viability, T/C [2] of 81.6%. It also gave a viability, T/C (second compound 0.1 µM, first compound 0.000316 µM) of 44.7%, a viability, T/C (second compound 0.1 µM, first compound 0.001 µM) of 48.4% and a viability, T/C (second compound 0.1 µM, first compound 0.00316 µM) of 44.7%. It also gave a viability, T/C (second compound 0.1 µM, first compound 0.01 µM) of 48%, a viability, T/C [3] of 43.2% and a viability, T/C [4] of 37.9%. For the same compound, the viability, T/C (second compound 0.316 µM, first compound 0.000316 µM) was 2.64%, the viability, T/C (second compound 0.316 µM, first compound 0.001 µM) was 2.72% and the viability, T/C (second compound 0.316 µM, first compound 0.00316 µM) was 2.87%. The viability, T/C (second compound 0.316 µM, first compound 0.01 µM) was 3.16%, the viability, T/C [5] was 2.95% and the viability, T/C [6] was 2.25%. The viability, T/C (second compound 1 µM, first compound 0.000316 µM) was 0.47%, the viability, T/C (second compound 1 µM, first compound 0.001 µM) was 0.71% and the viability, T/C (second compound 1 µM, first compound 0.00316 µM) was 1%. The viability, T/C (second compound 1 µM, first compound 0.01 µM) was 0.8%, the viability, T/C [7] was 0.52% and the viability, T/C [8] was 0.74%. For the same compound, the viability, T/C (second compound 3.16 µM, first compound 0.000316 µM) was 0.96%, the viability, T/C (second compound 3.16 µM, first compound 0.001 µM) was 0.86% and the viability, T/C (second compound 3.16 µM, first compound 0.00316 µM) was 0.88%. The viability, T/C (second compound 3.16 µM, first compound 0.01 µM) was 0.88%, the viability, T/C [9] was 1.01% and the viability, T/C [10] was 0.64%. It also gave a viability, T/C (second compound 10 µM, first compound 0.000316 µM) of 0.56%, a viability, T/C (second compound 10 µM, first compound 0.001 µM) of 0.62% and a viability, T/C (second compound 10 µM, first compound 0.00316 µM) of 0.88%. It also gave a viability, T/C (second compound 10 µM, first compound 0.01 µM) of 0.76%, a viability, T/C [11] of 0.63% and a viability, T/C [12] of 0.56%.
`Nc1ccn(C2OC(CO)C(O)C2(F)F)c(=O)n1` (stereo unspecified) + CN1CCN(c2cc(C(=O)Nc3cc4cc(-c5cnn(C)c5)ccc4cn3)ccn2)CC1 was tested, and the IC50 (second compound 0.0316 µM) was < 0.0316 µM, the IC50 (second compound 0.1 µM) was < 0.0316 µM and the IC50 (second compound 0.316 µM) was < 0.0316 µM. For the same compound, the IC50 (second compound 1 µM) was < 0.0316 µM, the IC50 (second compound 3.16 µM) was < 0.0316 µM and the IC50 (second compound 10 µM) was < 0.0316 µM. The viability, T/C [1] was 22.6%, the viability, T/C [2] was 8.64% and the viability, T/C [13] was 6.4%. It also gave a viability, T/C [14] of 7.52%, a viability, T/C [15] of 6.95% and a viability, T/C [16] of 5.95%. For the same compound, the viability, T/C [3] was 13.8%, the viability, T/C [4] was 8.73% and the viability, T/C [17] was 7.61%. The viability, T/C [18] was 7.32%, the viability, T/C [19] was 7.36% and the viability, T/C [20] was 6.15%. The viability, T/C [5] was 1.98%, the viability, T/C [6] was 2.23% and the viability, T/C [21] was 2.31%. It also gave a viability, T/C [22] of 2.07%, a viability, T/C [23] of 1.76% and a viability, T/C [24] of 1.74%. For the same compound, the viability, T/C [7] was 0.86%, the viability, T/C [8] was 0.6% and the viability, T/C [25] was 1.16%. The viability, T/C [26] was 0.96%, the viability, T/C [27] was 0.79% and the viability, T/C [28] was 0.99%. It also gave a viability, T/C [9] of 0.84%, a viability, T/C [10] of 0.93% and a viability, T/C [29] of 0.9%. For the same compound, the viability, T/C [30] was 0.86%, the viability, T/C [31] was 1.01% and the viability, T/C [32] was 0.93%. The viability, T/C [11] was 0.55%, the viability, T/C [12] was 0.43% and the viability, T/C [33] was 0.48%. For the same compound, the viability, T/C [34] was 0.64%, the viability, T/C [35] was 0.74% and the viability, T/C [36] was 0.72%.
`O=c1[nH]cc(F)c(=O)[nH]1` + CN1CCN(c2cc(C(=O)Nc3cc4cc(-c5cnn(C)c5)ccc4cn3)ccn2)CC1 was tested, and the IC50 (second compound 0.0316 µM) was 8.77 µM, the IC50 (second compound 0.1 µM) was < 0.0316 µM and the IC50 (second compound 0.316 µM) was < 0.0316 µM. The IC50 (second compound 1 µM) was < 0.0316 µM, the IC50 (second compound 3.16 µM) was < 0.0316 µM and the IC50 (second compound 10 µM) was < 0.0316 µM. The viability, T/C [1] was 94.5%, the viability, T/C [2] was 89.6% and the viability, T/C [13] was 88.8%. For the same compound, the viability, T/C [14] was 83%, the viability, T/C [15] was 55.9% and the viability, T/C [16] was 49.4%. The viability, T/C [3] was 41.8%, the viability, T/C [4] was 52.2% and the viability, T/C [17] was 47.8%. For the same compound, the viability, T/C [18] was 41.9%, the viability, T/C [19] was 31.5% and the viability, T/C [20] was 29.9%. It also gave a viability, T/C [5] of 3.11%, a viability, T/C [6] of 2.75% and a viability, T/C [21] of 3.62%. For the same compound, the viability, T/C [22] was 2.92%, the viability, T/C [23] was 2.73% and the viability, T/C [24] was 2.79%. The viability, T/C [7] was 0.65%, the viability, T/C [8] was 0.89% and the viability, T/C [25] was 0.91%. It also gave a viability, T/C [26] of 0.83%, a viability, T/C [27] of 0.68% and a viability, T/C [28] of 0.7%. It also gave a viability, T/C [9] of 0.68%, a viability, T/C [10] of 1.36% and a viability, T/C [29] of 1.24%. The viability, T/C [30] was 0.98%, the viability, T/C [31] was 1.14% and the viability, T/C [32] was 1.44%. It also gave a viability, T/C [11] of 0.57%, a viability, T/C [12] of 0.53% and a viability, T/C [33] of 0.54%. The viability, T/C [34] was 0.77%, the viability, T/C [35] was 0.83% and the viability, T/C [36] was 0.73%.
